Results taken from patent publication US10030042B2, “Synthesis of bicyclic nucleosides” (MiRagen Therapeutics, Inc., priority 2014, dated 2018).
“Also recorded” adds a separate entry of the source. Oligonucleotides are written 5' to 3', each unit as a sugar letter and its base; * is a phosphorothioate linkage, no mark a phosphodiester; rarer units and linkages stand in square brackets, end groups in braces. Plain capitals give the bases only. [aminoLNA-N] = amino locked nucleic acid nucleoside (N: the base); l = locked nucleic acid (LNA); d = 2'-deoxy (DNA)

Experiments:
[1] = tested on: mature human miR-208a (22 nucleotide RNA complement); test: Duplex melting temperature (Tm) of anti-208a oligonucleotides annealed to complementary RNA; format: binding; details: for Tm: RNA complement; for ΔTm, DNA: difference to fully DNA phosphodiester 10931
Protocol: The melting temperature (Tm) of modified 16 nucleotide phosphodiester strands were determined and compared to the Tm of identical 16 nucleotide sequences having natural phosphodiester DNA nucleotides. Specifically, the relative aminoCBBN melting temperature (Tm) compared to the 2′-deoxynucleoside or oxoCBBN nucleoside with the same nucleobase was determined on a per incorporation basis by determining the difference between the melting temperature of the amino-modified 16 nucleotide length phosphodiester strand and that of the identical 16 nucleotide sequence utilizing either the 2′-deoxynucleoside or oxoCBBN phosphodiester DNA nucleotide. Tm differences of substitutions were compared only when they were placed in the same position of the sequence.
For example, the modified anti-208a oligonucleotides were annealed to the complementary sequence, twenty-two nucleotides in length, comprised of RNA nucleosides and a phosphate backbone. The complementary sequence was identical to the endogenous mature miRNA. Thermal denaturation temperatures (Tm) were measured as a maximum of the first derivative plot of melting curvex (A260 vs. Temp). The duplexes were constituted at 1 μM in a 0.9% NaCl buffer. Temperature was ramped from 25° C. to 95° C. at 1° C./min and OD's at 260 nm were read once per 30 seconds. Tm values are averages of at least two measurements.
Duplex melting temperatures for various modifications of a 16 nucleotide sequence, complementary to a nucleotide sequence of mature human miR-208a were measured using a Varian Cary 1E UV-Vis Spectrophotometer. Anti-miRNA 208a oligonucleotide sequences tested included a fully DNA phosphodiester (compound M-10931 (SEQ ID NO:9)), four DNA phosphodiester oligonucleotides with 1, 2 or 3 aminoCBBN thymidine residues in place of dT residues (compounds M-11915 (SEQ ID NO: 1), M-11916 (SEQ ID NO:2), M-11917 (SEQ ID NO:3), and M-11918 (SEQ ID NO:4)), mixed 9 LNA/7 DNA phosphorothioate oligonucleotide (compound M-10101 (SEQ ID NO:10)), and 2 mixed LNA/DNA/aminoCBBN phosphorothioate oligonucleotides where LNA thymidines of the parent compound, compound M-10101 (SEQ ID NO: 10), were replaced with either 1 or 2 aminoCBBN residues (compounds M-11920 (SEQ ID NO:6) and M-11919 (SEQ ID NO:5)). Duplexes were constituted at 1 μM in 0.9% NaCl. Temperature was ramped from 25° C. to 95° C. at 1° C./min and OD's at 260 nm were read once per 30 seconds.

RNA Complement = details: Table 3, cited from earlier work; for Tm: DNA 9mer, phosphate backbone, RNA complement, literature values
miR-208a = test: Dual-luciferase reporter assay in HeLa cells stably expressing miR-208a; format: cell-based, human; details: FIG. 4; renilla/firefly luminescence, 24 hours after transfection, in words
Protocol: A HeLa cell line stably expressing miR-208a was generated. Specifically, a miRNA expression vector (Cell BioLabs, Inc.) expressing miR-208a was transfected into HeLa cells. Cells were then selected using a puromycin selection screen and clones which had detectable miR-208a expression as measured by qPCR were isolated (Ct value=˜30).
The cells were plated in a black-walled 96 well plate with 10,000 cells per well. After twenty-four hours following plating, the cells were transfected with a dual-luciferase plasmid containing the miR-208a binding site in the 3′ UTR of the renilla gene and various miR-208a inhibitors (compounds M-11919 (SEQ ID NO:5), M-11920 (SEQ ID NO:6), and M-10101 (SEQ ID NO:10)). Compound M-10591 was a non-targeting control. The cells were incubated for 24 hours at 37° C. and then both firefly (as a transfection normalization) and renilla levels were measured by luminescence using the Dual-Luciferase Reporter Assay System (Promega). Data was normalized to cells treated with only the miR-208a dual luciferase plasmid (psi check 208a).

[2] = Table 3, PS backbone 10101-like
[3] = Table 1, phosphate backbone, duplex 1 μM in 0.9% NaCl
[4] = Table 3, PS backbone, versus parent 10101

## ICs; dTs; dTs; dTs; ITs; ITs; dGs; ICs; dTs; ICs; IGs; dTs; ICs; dTs; ITs; IA [Compound M-10101, reference compound]
[1]; [2]
  Tm: 86.7 °C

## bC.bT.bT.bT.bT.bT.dG.bC.bT.bC. dG.bT.bC.bT.bT.dA [Compound M-10924]
[1]; Table 1
  ΔTm, DNA: 36.7 °C
[1]; Table 1, per modification, versus DNA
  ΔTm/mod: 2.8 °C/modification
[1]; [3]
  Tm: 89.8 °C

## dC; dT; dT; dT; dT; dT; dG; dC; dT; dC; dG; dT; dC; dT; dT; dA (DNA CTTTTTGCTCGTCTTA; unmodified DNA) [Compound M-10931, reference compound]
[1]; Table 1
  ΔTm, DNA: 0 °C
[1]; [3]
  Tm: 53.1 °C

## dG; IT; dG; dA; IT; dA; IT; dG; dC (DNA dGlTdGdAlTdAlTdGdC) [DNA_9mer_PO_3LNA-T, literature DNA 9mer phosphodiester with three LNA-T]
RNA Complement
  Tm: 50 °C

## dG; aIT; dG; dA; aIT; dA; aIT; dG; dC (DNA dG[aminoLNA-T]dGdA[aminoLNA-T]dA[aminoLNA-T]dGdC) [DNA_9mer_PO_3aminoLNA-T, literature DNA 9mer phosphodiester with three aminoLNA-T]
RNA Complement
  Tm: 47 °C
RNA Complement; aminoLNA 9mer versus LNA 9mer
  ΔTm, parent: −1 °C
  ΔTm/mod: −1 °C/modification

## lCs.dTs.dTs.dTs.abTs.abTs.dGs. lCs.dTs.lCs.lGs.dTs.lCs.dTs.lTs.lA [Compound M-11919]
[1]; [2]
  Tm: 80.04 °C
[1]; [4]
  ΔTm, parent: −6.66 °C
  ΔTm/mod: −6.66 °C/modification
miR-208a
  miR-208a inhibition activity: comparable activity as compound M-10101; also recorded: retains all activity of the optimized M-10101

## lCs.dTs.dTs.dTs.lTs.lTs.dGs.lCs. dTs.lCs.lGs.dTs.lCs.dTs.abTs.lA [Compound M-11920]
[1]; [2]
  Tm: 85.125 °C
[1]; [4]
  ΔTm, parent: −1.575 °C
  ΔTm/mod: −0.7875 °C/modification
[1]; comparison of M-11920 with M-11919
  Affinity for the miR-208a RNA (Tm data, in words): less affinity for the miR-208a RNA than the M-11919
miR-208a
  miR-208a inhibition activity: slightly less activity compared to the other two inhibitors
